{"source": "paper PMC8890653", "about": "“Cell-penetrating peptides containing the progesterone receptor polyproline domain inhibits EGF signaling and cell proliferation in lung cancer cells” (PLoS ONE, 2022)", "test_system": "PC9-ER cells", "experiment": "Cell viability (MTT) of Erlotinib-resistant cells", "settings": "Homo sapiens, PC-9/ER, 72 h, read-out: Inhibition of PC9-ER cell proliferation, Erlotinib alone", "data": [{"smiles": "C#Cc1cccc(Nc2ncnc3cc(OCCOC)c(OCCOC)cc23)c1", "note": "[Erlotinib]", "values": [{"measurement": "inhibition at 0.1 µM", "value": 8, "unit": "%"}]}]}
